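96-well plates; 48 h exposure; 5 concentrations. Endpoints by linear interpolation between flanking doses. Not reached: highest tested concentration assigned. The concentration for 50% growth inhibition is given as GI50. TGI is the concentration that stops growth completely.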 Active and inactive are the calls of the source. No stated cut-off is given here; in the data, active means GI50 below about 0.43 µM; inactive means the rest.
Columns and labels:
Experiment in all cases: NCI tumour cell line growth inhibition, 48 h
[1] = tested on: MDA-MB-435
[2] = tested on: UO-31 renal
[3] = tested on: MALME-3M melanoma
[4] = tested on: HT29 colon
[5] = tested on: SNB-78 CNS
[6] = tested on: SF-295 CNS
[7] = tested on: LXFL 529 NSCLC
[8] = tested on: TK-10 renal
[9] = tested on: MOLT-4 leukemia
[10] = tested on: SK-MEL-2 melanoma
[11] = tested on: SF-268 CNS
[12] = tested on: HOP-92 NSCLC
[13] = tested on: SF-539 CNS
[14] = tested on: NCI/ADR-RES ovarian
[15] = tested on: RXF 393 renal
[16] = tested on: KM12 colon
[17] = tested on: RXF-631 renal
[18] = tested on: XF 498 CNS

For `C=CC(=O)C#CC#CC/C=C\CCCCCCC`, the TGI [1] was > 20.6 µM, the outcome [1] was “inactive” and the TGI [2] was > 20.6 µM. The outcome [2] was “inactive”, the TGI [3] was > 20.6 µM and the outcome [3] was “inactive”. The TGI [4] was > 20.6 µM, the outcome [4] was “inactive” and the TGI [5] was > 20.6 µM. The TGI [6] was > 20.6 µM, the outcome [6] was “inactive” and the TGI [7] was > 20.6 µM. The TGI [8] was > 20.6 µM, the outcome [8] was “inactive” and the TGI [9] was 12.3 µM. For the same compound, the outcome [9] was “inactive”, the TGI [10] was > 20.6 µM and the outcome [10] was “inactive”. For the same compound, the TGI [11] was > 20.6 µM, the outcome [11] was “inactive” and the TGI [12] was > 20.6 µM. The TGI [13] was > 20.6 µM, the outcome [13] was “inactive” and the TGI [14] was > 20.6 µM. For the same compound, the outcome [14] was “inactive”, the TGI [15] was > 19.5 µM and the outcome [15] was “inactive”. The TGI [16] was > 20.6 µM and the outcome [16] was “inactive”.

`C[CH2][Sn]([CH2]C)([O]C(=O)c1ccccc1F)[O]C(=O)c1ccccc1F` was tested, and the GI50 [1] was > 100 µM, the TGI [1] was > 100 µM and the GI50 [2] was > 55.2 µM. For the same compound, the TGI [2] was > 67.3 µM, the GI50 [3] was 16.5 µM and the TGI [3] was 31.4 µM. For the same compound, the GI50 [4] was 59.2 µM, the TGI [4] was > 100 µM and the GI50 [5] was 20.6 µM. It also gave a TGI [5] of 39 µM, a GI50 [17] of 18.6 µM and a TGI [17] of 34.1 µM. The GI50 [6] was > 62 µM, the TGI [6] was > 84.6 µM and the GI50 [7] was 11.1 µM. The TGI [7] was 24.2 µM, the GI50 [8] was 18.1 µM and the TGI [8] was 33.4 µM. For the same compound, the GI50 [9] was 28.8 µM, the TGI [9] was > 91 µM and the GI50 [18] was 15.9 µM. The TGI [18] was 30.6 µM, the GI50 [10] was 15.8 µM and the TGI [10] was 28.1 µM. The GI50 [11] was 32.1 µM, the TGI [11] was 50.8 µM and the GI50 [12] was 18 µM. For the same compound, the TGI [12] was 37.7 µM, the GI50 [13] was 23.2 µM and the TGI [13] was 29.4 µM. The GI50 [14] was > 100 µM, the TGI [14] was > 100 µM and the GI50 [15] was 15.4 µM. For the same compound, the TGI [15] was 35.4 µM, the GI50 [16] was > 100 µM and the TGI [16] was > 100 µM.

Reference: PubChem BioAssay (NCI)
